Each structure is given as a SMILES string.

A short description of the first series: Log P by HPLC on reversed phase, method [a], acidic range (0.1% formic acid). The format is physicochemical. The settings on record: LC-UV, 0.1% formic acid in water and acetonitrile.
Take `Cc1c(NC(=O)c2cccnc2C(F)F)cnn1CCC(C)C` [Example 2]: the LogP is 2.01^[a].

Regarding `CC(C)c1cccc(-n2ncc(NC(=O)c3cccnc3C(F)F)c2C(F)(F)F)c1` [Example 3], the LogP is 3.51^[a]. On the same count and under the same terms, in the case of `Cc1cnc(C(F)F)c(C(=O)Nc2cnn(-c3ccccc3)c2C(F)(F)F)c1` [Example 4] it was 2.44^[a]; in that of `Cc1c(NC(=O)c2cccnc2C(F)F)cnn1-c1cccc(Cl)c1` [Example 5], 2.25^[a]; in that of `Cc1c(NC(=O)c2cccnc2C(F)F)cnn1C(C)(C)C` [Example 6], 1.63^[a]. For `CCCCn1ncc(NC(=O)c2cccnc2C(F)F)c1C` [Example 7], the LogP is 1.69^[a].

Turning to `CCC(CC)n1ncc(NC(=O)c2cccnc2C(F)F)c1C` [Example 8], the LogP was 1.89^[a]. Take `O=C(Nc1cnn(-c2ccccc2)c1C(F)(F)F)c1cccnc1C(F)F` [Example 9]: the LogP is 2.53^[a].

With `O=C(Nc1cnn(-c2ccc(Cl)cc2)c1C(F)(F)F)c1cccnc1C(F)F` [Example 10], the LogP was 3.02^[a]. On to `Cc1c(NC(=O)c2cccnc2C(F)F)cnn1C1CCCC1` [Example 11], for which the LogP was 1.83^[a]. On the same count and under the same terms, with `Cc1c(NC(=O)c2cccnc2C(F)F)cnn1-c1ccccc1` [Example 12] the figure was 1.78^[a]; with `Cc1ccc(C)c(-n2ncc(NC(=O)c3cccnc3C(F)F)c2C)c1` [Example 13], 2.25^[a]. Same read-out and setting: with `CC(C)n1ncc(NC(=O)c2cccnc2C(F)F)c1C1CC1` [Example 14] the figure was 1.68^[a]; with `Cc1nn(-c2cccc(F)c2)c(C)c1NC(=O)c1cccnc1C(F)F` [Example 15], 1.99^[a]; with `Cc1nn(-c2cccc(F)c2)c(C)c1NC(=O)c1cccnc1C(F)(F)F` [Example 16], 2.27^[a]. Still for that read-out and setting: with `Cc1nn(-c2ccccc2)c(C)c1NC(=O)c1cccnc1C(F)F` [Example 17] the figure was 1.81^[a]; with `Cc1nn(-c2ccccc2)c(C)c1NC(=O)c1cccnc1C(F)(F)F` [Example 18], 2.07^[a]; with `O=C(Nc1cnn(-c2ccc(Cl)cc2)c1C(F)F)c1cccnc1C(F)F` [Example 23], 2.69^[a]. With `O=C(Nc1cnn(-c2cccc(Cl)c2)c1C(F)F)c1cccnc1C(F)F` [Example 24], the LogP was 2.69^[a]. The same measure, in the same setting: with `O=C(Nc1cnn(-c2cccc(F)c2)c1C(F)F)c1cccnc1C(F)F` [Example 25] the figure was 2.37^[a]; with `O=C(Nc1cnn(-c2cccc(C(F)F)c2)c1C(F)F)c1cccnc1C(F)F` [Example 26], 2.48^[a]; with `Cc1ccccc1-n1ncc(NC(=O)c2cccnc2C(F)F)c1C(F)F` [Example 27], 2.37^[a]. Same read-out and setting: with `O=C(Nc1cnn(-c2ccc(Br)cc2)c1C(F)F)c1cccnc1C(F)F` [Example 28] the figure was 2.80^[a]; with `O=C(Nc1cnn(-c2cc(F)cc(F)c2)c1C(F)F)c1cccnc1C(F)F` [Example 29], 2.62^[a]. Regarding `O=C(Nc1cnn(-c2cccc(C(F)(F)F)c2)c1C(F)F)c1cccnc1C(F)F` [Example 30], the LogP was 2.88^[a].

Turning to `O=C(Nc1cnn(-c2ccccc2C(F)(F)F)c1C(F)F)c1cccnc1C(F)F` [Example 31], the LogP was 2.51^[a]. Same read-out and setting: in the case of `O=C(Nc1cnn(-c2ccc(F)cc2)c1C(F)F)c1cccnc1C(F)F` [Example 32] it was 2.20^[a]. The same measure, in the same setting: in the case of `O=C(Nc1cnn(-c2ccccc2F)c1C(F)F)c1cccnc1C(F)F` [Example 33] it was 2.32^[a].

The series is the same for the next values; noted with them: reversed phase HPLC column, LC-UV, 0.1% formic acid in water and acetonitrile.
In turn, `O=C(Nc1cnn(-c2ccccc2)c1C(F)(F)F)c1ccc(Cl)nc1C(F)F` [Example 1, 6-chloro-2-(difluoromethyl)-N-[1-phenyl-5-(trifluoromethyl)-1H-pyrazol-4-yl]nicotinamide] came in with a chromatographic logP of 2.8.

The values are drawn from patent US10039283B2, “Substituted pyrazolyl-nicotin(thio)amide derivatives and their use as fungicides” (BAYER CROPSCIENCE AKTIENGESELLSCHAFT, priority 2014, dated 2018).
